Measurements as given in patent US10765114B2, “4-amino-6-(pyridyl and 2-substitutedphenyl)-picolinates and 6-amino-2-(pyridyl and 2-substitutedphenyl)-pyrimidine-4-carboxylates and their use as herbicides” (Dow AgroSciences LLC, priority 2013, dated 2020).
Like-named read-outs stand apart in the source and are kept apart here.

Key:
[1] = test system: Key Broadleaf Weed and Crop Species; assay: Post-Emergent Test II (Table 5); format: in vivo; settings: post-emergence, 336 h; for pest or weed control at 70 g/ha: application rate 70 (kg ai/ha; footnote: g ai/ha); for pest or weed control at 140 g/ha: application rate 140 (kg ai/ha; footnote: g ai/ha)
Method in brief: (§1)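 Growth stage at treatment: first or second true leaf. Application: compound in acetone/DMSO diluted into an adjuvant-containing aqueous mix, sprayed at 187 L/ha at several rates. Assessment: visual 0-100% injury at 14 days against untreated plants.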

[2] = test system: Key Grass and Sedge Weeds as well as Grass Crops; assay: Post-Emergent Test II (Table 6); format: in vivo; settings: post-emergence, 336 h, 14 days after application; for pest or weed control at 70 g/ha: 70 g ai/ha; for pest or weed control at 140 g/ha: 140 g ai/ha
Method in brief: as §1

[3] = Abutilon theophrasti, ABUTH: velvetleaf (Abutilon theophrasti), read-out: Visual Growth Reduction (%) 14 Days After Application ABUTH
[4] = Amaranthus retroflexus, AMARE: redroot pigweed (Amaranthus retroflexus), read-out: Visual Growth Reduction (%) 14 Days After Application AMARE
[5] = Brassica napus, BRSSS: oilseed rape, canola (Brassica napus), read-out: Visual Growth Reduction (%) 14 Days After Application BRSSS
[6] = Chenopodium album, CHEAL: lambsquarters (Chenopodium album), read-out: Visual Growth Reduction (%) 14 Days After Application CHEAL
[7] = Euphorbia heterophylla, EPHHL: wild poinsettia (Euphorbia heterophylla), read-out: Visual Growth Reduction (%) 14 Days After Application EPHHL
[8] = Helianthus annuus, HELAN: sunflower (Helianthus annuus), read-out: Visual Growth Reduction (%) 14 Days After Application HELAN
[9] = Viola tricolor, VIOTR: wild pansy (Viola tricolor), read-out: Visual Growth Reduction (%) 14 Days After Application VIOTR
[10] = CYPSS, read-out: Visual Growth Reduction (%) 14 Days After Application CYPSS
[11] = DIGSA: crabgrass (Digitaria sanguinalis), read-out: Visual Growth Reduction (%) 14 Days After Application DIGSA
[12] = ECHSS, read-out: Visual Growth Reduction (%) 14 Days After Application ECHSS
[13] = ORYSS (crop), read-out: Visual Growth Reduction (%) 14 Days After Application ORYSS
[14] = SETFA: giant foxtail (Setaria faberi), read-out: Visual Growth Reduction (%) 14 Days After Application SETFA
[15] = SORVU: grain sorghum (Sorghum vulgare), read-out: Visual Growth Reduction (%) 14 Days After Application SORVU
[16] = TRZSS (crop), read-out: Visual Growth Reduction (%) 14 Days After Application TRZSS
[17] = ZEAMX: maize, corn (Zea mays), read-out: Visual Growth Reduction (%) 14 Days After Application ZEAMX

Row | Compound | pest or weed control at 70 g/ha [1, 3] [%] | pest or weed control at 140 g/ha [1, 3] [%] | pest or weed control at 70 g/ha [1, 4] [%] | pest or weed control at 140 g/ha [1, 4] [%] | pest or weed control at 70 g/ha [1, 5] [%] | pest or weed control at 140 g/ha [1, 5] [%] | pest or weed control at 70 g/ha [1, 6] [%] | pest or weed control at 140 g/ha [1, 6] [%] | pest or weed control at 70 g/ha [1, 7] [%] | pest or weed control at 140 g/ha [1, 7] [%] | pest or weed control at 70 g/ha [1, 8] [%] | pest or weed control at 140 g/ha [1, 8] [%] | pest or weed control at 70 g/ha [1, 9] [%] | pest or weed control at 140 g/ha [1, 9] [%] | pest or weed control at 70 g/ha [2, 10] [%] | pest or weed control at 140 g/ha [2, 10] [%] | pest or weed control at 70 g/ha [2, 11] [%] | pest or weed control at 140 g/ha [2, 11] [%] | pest or weed control at 70 g/ha [2, 12] [%] | pest or weed control at 140 g/ha [2, 12] [%] | other results
1 | COC(=O)c1nc(-c2ccc(Cl)c(F)c2C(F)F)cc(N)c1Cl [Compound 53, methyl 4-amino-3-chloro-6-(4-chloro-2-(difluoromethyl)-3-fluorophenyl)picolinate] | 85 to 94 | 0 to 29 | 95 to 100 | 95 to 100 | 45 to 59 | 45 to 59 | 95 to 100 | 95 to 100 | 0 to 29 | 0 to 29 | 60 to 74 | 75 to 84 | 0 to 29 | 0 to 29 | 0 to 29 | 0 to 29 | 0 to 29 | 0 to 29 | 0 to 29 | 0 to 29 | pest or weed control at 70 g/ha [2, 13]: 0 to 29%; pest or weed control at 140 g/ha [2, 13]: 0 to 29%; pest or weed control at 70 g/ha [2, 14]: 0 to 29%; pest or weed control at 140 g/ha [2, 14]: 0 to 29%; pest or weed control at 70 g/ha [2, 15]: 0 to 29%; pest or weed control at 140 g/ha [2, 15]: 0 to 29%; pest or weed control at 70 g/ha [2, 16]: 0 to 29%; pest or weed control at 140 g/ha [2, 16]: 0 to 29%; pest or weed control at 70 g/ha [2, 17]: 0 to 29%; pest or weed control at 140 g/ha [2, 17]: 0 to 29%
2 | COC(=O)c1nc(-c2ccc(I)nc2)c(F)c(N)c1Cl [Compound 54, methyl 4-amino-5-chloro-3-fluoro-6′-Iodo-[2,3′-bipyridine]-6-carboxylate] | 85 to 94 | 85 to 94 | 85 to 94 | 85 to 94 | 85 to 94 | 95 to 100 | 95 to 100 | 95 to 100 | 75 to 84 | 85 to 94 | 85 to 94 | 95 to 100 | 75 to 84 | 85 to 94 | 75 to 84 | 85 to 94 | 60 to 74 | 75 to 84 | 75 to 84 | 85 to 94 | pest or weed control at 70 g/ha [2, 13]: 0 to 29%; pest or weed control at 140 g/ha [2, 13]: 0 to 29%; pest or weed control at 70 g/ha [2, 14]: 60 to 74%; pest or weed control at 140 g/ha [2, 14]: 60 to 74%; pest or weed control at 70 g/ha [2, 15]: 45 to 59%; pest or weed control at 140 g/ha [2, 15]: 60 to 74%; pest or weed control at 70 g/ha [2, 16]: 60 to 74%; pest or weed control at 140 g/ha [2, 16]: 75 to 84%; pest or weed control at 70 g/ha [2, 17]: 45 to 59%; pest or weed control at 140 g/ha [2, 17]: 60 to 74%
3 | Cc1c(-c2nc(C(=O)O)c(Cl)c(N)c2F)ccc(C(F)(F)F)c1F [Compound 55] | 45 to 59 | 45 to 59 | 0 to 29 | 0 to 29 | 30 to 44 | 45 to 59 | 60 to 74 | 85 to 94 | 0 to 29 | 45 to 59 | 85 to 94 | 95 to 100 | 0 to 29 | 0 to 29 | 0 to 29 | 0 to 29 | 0 to 29 | 0 to 29 | 0 to 29 | 0 to 29 | pest or weed control at 70 g/ha [2, 13]: 0 to 29%; pest or weed control at 140 g/ha [2, 13]: 0 to 29%; pest or weed control at 70 g/ha [2, 15]: 0 to 29%; pest or weed control at 140 g/ha [2, 15]: 0 to 29%; pest or weed control at 70 g/ha [2, 16]: 0 to 29%; pest or weed control at 140 g/ha [2, 16]: 0 to 29%; pest or weed control at 70 g/ha [2, 17]: 45 to 59%; pest or weed control at 140 g/ha [2, 17]: 45 to 59%
